Assay results published in the supplement of paper PMC13207355.
Where a name gives a salt, the structure may show the parent alone.

How the values were obtained:
Conditions in all cases: exposure time: 72 h
E13 [1] = patient-derived glioblastoma stem cells of classical subtype; experiment: surviving fraction (nuclei count normalised to DMSO); higher = more cells surviving (less toxic)
E21 [2] = patient-derived glioblastoma stem cells of mesenchymal subtype; experiment: as above
E28 [3] = patient-derived glioblastoma stem cells of classical subtype; experiment: as above
E31 [4] = patient-derived glioblastoma stem cells of proneural subtype; experiment: as above
E34 [5] = patient-derived glioblastoma stem cells of proneural subtype; experiment: as above
E57 [6] = patient-derived glioblastoma stem cells of mesenchymal subtype; experiment: as above
FT3469 [7] = normal neural stem cell line; experiment: as above
E13 [8] = experiment: phenotypic distance (Euclidean, principal components) from DMSO controls (arbitrary units); higher = stronger morphological change
E21 [9] = experiment: as above
E28 [10] = experiment: as above
E31 [11] = experiment: as above
E34 [12] = experiment: as above
E57 [13] = experiment: as above
FT3469 [14] = experiment: as above
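Wherever phenotypic distance (Euclidean, principal components) from DMSO controls is given: cell Painting imaging in 384-well plates, CellProfiler features reduced to at least 20 principal components, Euclidean distance versus same-plate DMSO vehicle wells (0.1% v/v), median over six images per well.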
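Wherever surviving fraction (nuclei count normalised to DMSO) is given: nuclei counted by high-content imaging of Hoechst-stained cells in laminin-coated 384-well plates, relative to 0.1% DMSO vehicle wells, with staurosporine as cell-death control.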

## COc1cccc2c1C(=O)c1c(O)c3c(c(O)c1C2=O)C[C@@](O)(C(=O)CO)C[C@@H]3O[C@H]1C[C@H](N)[C@H](O)[C@H](C)O1 [Doxorubicin hydrochloride]
E13 [1]; 4.1 nM
  surviving fraction: 0.639
E13 [1]; 12.3 nM
  surviving fraction: 0.527
E13 [1]; 37 nM
  surviving fraction: 0.409
E13 [1]; 111.1 nM
  surviving fraction: 0.265
E13 [1]; 333.3 nM
  surviving fraction: 0.188
E13 [1]; 1000 nM
  surviving fraction: 0.0799
E13 [1]; 3000 nM
  surviving fraction: 0.0133
E21 [2]; 4.1 nM
  surviving fraction: 0.799
E21 [2]; 12.3 nM
  surviving fraction: 0.544
E21 [2]; 37 nM
  surviving fraction: 0.428
E21 [2]; 111.1 nM
  surviving fraction: 0.237
E21 [2]; 333.3 nM
  surviving fraction: 0.17
E21 [2]; 1000 nM
  surviving fraction: 0.0999
E21 [2]; 3000 nM
  surviving fraction: 0.0192
E28 [3]; 4.1 nM
  surviving fraction: 0.535
E28 [3]; 12.3 nM
  surviving fraction: 0.403
E28 [3]; 37 nM
  surviving fraction: 0.341
E28 [3]; 111.1 nM
  surviving fraction: 0.163
E28 [3]; 333.3 nM
  surviving fraction: 0.174
E28 [3]; 1000 nM
  surviving fraction: 0.35
E28 [3]; 3000 nM
  surviving fraction: 0.0586
E31 [4]; 4.1 nM
  surviving fraction: 0.425
E31 [4]; 12.3 nM
  surviving fraction: 0.381
E31 [4]; 37 nM
  surviving fraction: 0.269
E31 [4]; 111.1 nM
  surviving fraction: 0.186
E31 [4]; 333.3 nM
  surviving fraction: 0.105
E31 [4]; 1000 nM
  surviving fraction: 0.0519
E31 [4]; 3000 nM
  surviving fraction: 0.0645
E34 [5]; 4.1 nM
  surviving fraction: 0.738
E34 [5]; 12.3 nM
  surviving fraction: 0.599
E34 [5]; 37 nM
  surviving fraction: 0.502
E34 [5]; 111.1 nM
  surviving fraction: 0.539
E34 [5]; 333.3 nM
  surviving fraction: 0.502
E34 [5]; 1000 nM
  surviving fraction: 0.346
E34 [5]; 3000 nM
  surviving fraction: 0.123
E57 [6]; 4.1 nM
  surviving fraction: 0.74
E57 [6]; 12.3 nM
  surviving fraction: 0.411
E57 [6]; 37 nM
  surviving fraction: 0.229
E57 [6]; 111.1 nM
  surviving fraction: 0.172
E57 [6]; 333.3 nM
  surviving fraction: 0.164
E57 [6]; 1000 nM
  surviving fraction: 0.113
E57 [6]; 3000 nM
  surviving fraction: 0.0765
FT3469 [7]; 4.1 nM
  surviving fraction: 0.574
FT3469 [7]; 12.3 nM
  surviving fraction: 0.678
FT3469 [7]; 37 nM
  surviving fraction: 0.598
FT3469 [7]; 111.1 nM
  surviving fraction: 0.582
FT3469 [7]; 333.3 nM
  surviving fraction: 0.234
FT3469 [7]; 1000 nM
  surviving fraction: 0.149
FT3469 [7]; 3000 nM
  surviving fraction: 0.0213
E13 [8]; 4.1 nM
  phenotypic distance: 2.25
E13 [8]; 12.3 nM
  phenotypic distance: 3.82
E13 [8]; 37 nM
  phenotypic distance: 5.4
E13 [8]; 111.1 nM
  phenotypic distance: 6.04
E13 [8]; 333.3 nM
  phenotypic distance: 6.31
E13 [8]; 1000 nM
  phenotypic distance: 6.48
E13 [8]; 3000 nM
  phenotypic distance: 6.01
E21 [9]; 4.1 nM
  phenotypic distance: 1.5
E21 [9]; 12.3 nM
  phenotypic distance: 4.4
E21 [9]; 37 nM
  phenotypic distance: 6.35
E21 [9]; 111.1 nM
  phenotypic distance: 5.11
E21 [9]; 333.3 nM
  phenotypic distance: 5.4
E21 [9]; 1000 nM
  phenotypic distance: 5.92
E21 [9]; 3000 nM
  phenotypic distance: 6.77
E28 [10]; 4.1 nM
  phenotypic distance: 2.14
E28 [10]; 12.3 nM
  phenotypic distance: 2.39
E28 [10]; 37 nM
  phenotypic distance: 2.6
E28 [10]; 111.1 nM
  phenotypic distance: 3.51
E28 [10]; 333.3 nM
  phenotypic distance: 3.16
E28 [10]; 1000 nM
  phenotypic distance: 3.08
E28 [10]; 3000 nM
  phenotypic distance: 5.26
E31 [11]; 4.1 nM
  phenotypic distance: 2.91
E31 [11]; 12.3 nM
  phenotypic distance: 2.49
E31 [11]; 37 nM
  phenotypic distance: 2.07
E31 [11]; 111.1 nM
  phenotypic distance: 2.28
E31 [11]; 333.3 nM
  phenotypic distance: 4.77
E31 [11]; 1000 nM
  phenotypic distance: 5.51
E31 [11]; 3000 nM
  phenotypic distance: 5.71
E34 [12]; 4.1 nM
  phenotypic distance: 0.849
E34 [12]; 12.3 nM
  phenotypic distance: 3.53
E34 [12]; 37 nM
  phenotypic distance: 4.3
E34 [12]; 111.1 nM
  phenotypic distance: 3.08
E34 [12]; 333.3 nM
  phenotypic distance: 2.7
E34 [12]; 1000 nM
  phenotypic distance: 5.02
E34 [12]; 3000 nM
  phenotypic distance: 4.21
E57 [13]; 4.1 nM
  phenotypic distance: 1.85
E57 [13]; 12.3 nM
  phenotypic distance: 4.6
E57 [13]; 37 nM
  phenotypic distance: 8.27
E57 [13]; 111.1 nM
  phenotypic distance: 7.23
E57 [13]; 333.3 nM
  phenotypic distance: 7.01
E57 [13]; 1000 nM
  phenotypic distance: 7.35
E57 [13]; 3000 nM
  phenotypic distance: 7.3
FT3469 [14]; 4.1 nM
  phenotypic distance: 1.83
FT3469 [14]; 12.3 nM
  phenotypic distance: 1.46
FT3469 [14]; 37 nM
  phenotypic distance: 1.66
FT3469 [14]; 111.1 nM
  phenotypic distance: 1.6
FT3469 [14]; 333.3 nM
  phenotypic distance: 4.2
FT3469 [14]; 1000 nM
  phenotypic distance: 3
FT3469 [14]; 3000 nM
  phenotypic distance: 8.29
